In US20210024499A1, “OXIDIZED BIS(3-INDOLYL)METHANES AND USES THEREOF” (Sanford Burnam Prebys Medical Discovery Institute, priority 2018, published 2021):

Columns and labels:
[1] = system: HCT116 cells; test: DAPI staining for apoptosis, HCT116; type: cell-based; conditions: 0.5 μM, 6 hours, counted in 200 cells
Protocol: In HCT116 cells, about 80% apoptotic cells were detected when cells were treated with Compound 1 compared to less than 5% when cells were not treated with Compound 1. Apoptotic cells were counted in 200 cells.

[2] = system: SW480 cells; test: DAPI staining for apoptosis, SW480; type: cell-based; conditions: 0.5 μM, 6 hours, counted in 200 cells
Protocol: In SW480 cells, about 60% apoptotic cells were detected when cells were treated with Compound 1 compared to less than 5% when cells were not treated with Compound 1. Apoptotic cells were counted in 200 cells.

[3] = system: MDA-MB-231 cells; test: Caspase 3 cleavage assay (Western blotting); type: cell-based; conditions: 6 hours, Western blotting (FIG. 2)
[4] = biological target: T1, Nur77 (Homo sapiens, UniProt P22736); test: Cellular fractionation and immunostaining: mitochondrial targeting of Nur77; type: cell-based
T1 construct: expressed in transfected cells
Protocol: (§1) For cellular fractionation, cells were lysed in cold buffer A (10 mM HEPES-KOH (pH 7.9), 1.5 mM MgCl2, 10 mM KCl, 0.5 mM dithiothreitol) with a cocktail of proteinase inhibitors on ice for 10 min as described. Cytoplasmic fraction was collected by centrifuging at 6000 rpm for 30 seconds. Pellets containing nuclei were resuspended in cold high-salt buffer C (20 mM HEPES-KOH (pH 7.9), 25% glycerol, 420 mM NaCl, 1.5 mM MgCl2, 0.2 mM EDTA, 0.5 mM dithiothreitol) with a cocktail of proteinase inhibitors on ice for 30 minutes.

[5] = system: Nur77; test: as above; type: cell-based
Protocol: as §1

[6] = biological target: T1, Nur77; test: Nur77 expression and mitochondrial targeting with BI2030, HeLa; type: cell-based; conditions: HeLa cells
Description: To further characterize the effect of Compound 1 on promoting Nur77 mitochondrial targeting, we investigated the effect of Compound 1 in combination with BI2030 on Nur77 mitochondrial targeting and apoptosis induction. […] When Compound 1 and B12030 were used together, most of the BI2030-induced Nur77 protein was found in the heavy membrane fraction, and formed punctate structure in the cytoplasm, as visualized by confocal microscopy.

[7] = system: Nur77−/−MEFs; test: Cell viability (MTT), Nur77-/- MEFs; type: cell-based, mouse; conditions: 6 hours, MTT (FIG. 8)
Protocol: Cell viability was analyzed by using a colorimetric 3-(4,5-dimethylthiazol-[…]2-yl)-2,5-diphenyletetrazolium Bromide (MTT) assay that determines mitochondrial dehydrogenase activities in the living cells with a colorimetric method. Cells treated with test compounds were incubated with MTT and their effect on the viability of the cells was assayed by the ability of treated cells to reduce the yellow tetrazolium dye MTT to its insoluble formazan, which has a purple color.
The apoptotic effect of Compound 1 was examined in mouse embryonic fibroblast (MEF) and MEF lacking Nur77 (Nur77^−/−MEF). […] Induction of PARP cleavage (as performed in Example A-7) in MEFs by Compound 1 at 0.5 μM was also attenuated in Nur77^−/−MEFs.

[8] = system: Nur77−/−HeLa cells; test: PARP cleavage and caspase 3 activation, Nur77 knockout HeLa; type: cell-based
Protocol: Knocking out Nur77 and Bcl-2 from HeLa cells employed the CRISPR/Cas9 system. gRNA targeting sequence of Nur77 (5′-[…]-3′) and Bcl-2 (5′-[…]-3′) was cloned into gRNA cloning vector Px330 (Addgene, 71707) and confirmed by sequencing. To screen for cells lacking Nur77 or Bcl-2, HeLa cells were transfected with control vector and gRNA expression vectors, followed by G418 selection (0.5mg/m1). Single colonies were subjected to Western blotting using anti-Nur77 and anti-Bcl-2 antibody to select knockout cells.
The apoptotic effect of Compound lwas also evaluated in Nur77 genome knockout HeLa cells generated by CRISPR/Cas9 technology (Example A-5).

[9] = system: Bcl-2−/−HeLa cells; test: Mitochondrial membrane potential (JC1), Bcl-2 knockout HeLa; type: cell-based; conditions: 0.5 μM, 6 h
Protocol: Loss of mitochondrial membrane potential (Avm) represents one of the hallmarks of apoptosis. A JC-1 probe was employed to measure mitochondrial depolarization in cancer cells. MDA-MB-231 breast cancer cells were treated with different concentration of test compounds for 6 hours. JC-1 staining solution (5 μg/ml) was added at 37° C. for 20 min. After washing with PBS twice, mitochondrial membrane potentials were monitored by determining the relative amounts of dual emission from a multiple fluorescence reader. The fluorescence in cells was quantitatively analyzed by flow cytometry. Mitochondrial depolarization is depicted by an increase in the green/red fluorescence intensity ratio. ROS were monitored with the oxiadtion-senstive fluorescent probe 2′7′-dichlorodihydroflurescenin diacetate (DCF-DA).
In addition, Bcl-2^−/−HeLa cells were more resistant than the parental HeLa cells to Compound 1 in its induction of the mitochondrial membrane potential loss measured by JC1 staining and in the release of mitochondrial ROS (as performed in Example A-12).

[10] = biological target: T2, Nur77-LBD (Homo sapiens, UniProt P22736); test: Circular dichroism (CD) binding to Nur77-LBD; conditions: purified Nur77-LBD, spectra changed at 50° C. and above (FIG. 9)
T2 construct: Protein spectra of purified Nur77-LBD at temperature 50° C. and above changed substantially; His (N); made in house
Protocol: Stock solutions of 100 mM test compound in ethanol were added to 0.5 ml of 1 μM purified His-proteins in PBS, pH 7.6. CD spectra were obtained in a 0.2 cm path length cell at temperature between 25° C. to 65° C. by using an AVIV 62 DS spectropolarimeter for a wavelength range at 220 nm. Three spectra were corrected for background and averaged for each sample. The Kd was determined using nonlinear regression analysis for a one-site binding model (χ2>0.98).

[11] = system: Nur77 and pBind-RXRa-LBD-E453,6A; test: Mammalian one hybrid assay, RXRa-LBD/E453,6A mutant with Nur77; type: cell-based; conditions: cells transfected with Nur77 and pBind-RXRa-LBD-E453,6A
Protocol: HEK293T cells were co-transfected with pG5 Luciferase reporter together with the plasmid encoding RXRa-LBD fused with the Gal4 DNA-binding domain and other expression plasmids. After transfection, cells were treated with DMSO or a test compound, and assayed by using the Dual-Luciferase Reporter Assay System (Promega). Transfection efficiency was normalized to Renilla luciferase activity.
To exclude the possibility that Compound 1 acted on RXRa, Glu453 and Glu456 in the RXRa activation function 2 (AF2) region were substituted with Ala and the resulting mutant, RXRa-LBD/E453,6A, was used.

T1 sequence (P22736 whole entry): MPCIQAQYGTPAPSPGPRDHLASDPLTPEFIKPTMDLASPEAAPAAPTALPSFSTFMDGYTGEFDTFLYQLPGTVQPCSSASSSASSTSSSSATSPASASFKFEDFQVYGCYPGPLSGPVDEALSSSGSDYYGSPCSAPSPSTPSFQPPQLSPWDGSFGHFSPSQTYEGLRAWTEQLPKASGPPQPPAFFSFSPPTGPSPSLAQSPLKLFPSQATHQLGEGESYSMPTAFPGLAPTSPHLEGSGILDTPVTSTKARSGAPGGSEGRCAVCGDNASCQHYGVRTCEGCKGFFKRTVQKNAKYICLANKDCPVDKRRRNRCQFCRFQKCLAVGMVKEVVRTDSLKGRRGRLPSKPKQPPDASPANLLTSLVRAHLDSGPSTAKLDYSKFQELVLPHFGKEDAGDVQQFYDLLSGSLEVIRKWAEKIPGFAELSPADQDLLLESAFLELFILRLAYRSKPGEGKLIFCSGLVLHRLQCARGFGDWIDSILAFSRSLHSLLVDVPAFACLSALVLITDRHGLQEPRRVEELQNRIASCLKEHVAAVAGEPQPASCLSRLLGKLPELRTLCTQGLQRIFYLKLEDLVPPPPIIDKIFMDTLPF
T2 sequence (P22736 360-595 limits assumed): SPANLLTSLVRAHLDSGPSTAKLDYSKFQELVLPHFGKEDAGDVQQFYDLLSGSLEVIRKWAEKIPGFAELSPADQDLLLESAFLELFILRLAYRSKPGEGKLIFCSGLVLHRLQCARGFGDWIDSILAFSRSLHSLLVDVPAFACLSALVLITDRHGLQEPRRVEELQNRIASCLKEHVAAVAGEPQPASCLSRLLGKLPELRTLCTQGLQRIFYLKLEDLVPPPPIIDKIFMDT

Which results are given for `FC(F)(F)c1ccc([C+](c2c[nH]c3ccccc23)c2c[nH]c3ccccc23)cc1` [Compound 1, Bis(1H-indol-3-yl)(4-(trifluoromethyl)phenyl)methylium methanesulfonate]?
apoptotic cells (DAPI staining) [1]: about 80%; apoptotic cells (DAPI staining) [2]: about 60%; caspase 3 cleavage [3]: dose dependent induction of caspase 3 cleavage; transfected GFP-Nur77 in heavy membrane (HM) fraction ([4]; cellular fractionation): accumulated in the mitochondria-enriched heavy membrane (HM) fraction; Myc-Nur77 in heavy membrane (HM) fraction ([4]; mitochondria fractionation, 1μM): accumulated in the mitochondria-enriched heavy membrane (HM) fraction; transfected GFP-Nur77-LBD colocalization with Hsp60 ([5]; confocal microscopy and cellular fractionation): colocalized extensively with the mitochondria-specific Hsp60 protein; Myc-Nur77-LBD colocalization with mitochondria ([5]; immunostaining): colocalized extensively with the mitochondria; induction of Nur77 expression ([6]; Compound 1 0.5 μM, BI2030 1 μM, 2 hours (FIG. 5)): incapable of inducing Nur77 expression; Nur77 mitochondrial accumulation / targeting ([6]; heavy membrane fraction, Compound 1 tested together with BI2030): able to induce mitochondrial targeting of BI2030-induced Nur77 protein; growth inhibitory effect relative to MEFs [7]: significantly diminished; induction of PARP cleavage and caspase 3 activation [8]: strongly suppressed; JC1 green to red ratio [9]: no change; binding to Nur77-LBD (CD spectra) [10]: direct binding; reporter transcriptional activity [11]: could still activate the reporter gene transcription
